According to US11547681B2, “N-acylethanolamide derivatives and uses thereof” (ELIEM THERAPEUTICS, INC., priority 2016, dated 2023):

Assay: in vitro
Details: for Measured concentration of PEA (analyte) / % Remaining of Initial / Measured concentration of analyte PEA, 0 min / Measured concentration of analyte PEA, 10 min / Measured concentration of analyte PEA, 20 min / Measured concentration of analyte PEA, 30 min / Measured concentration of analyte PEA, 60 min / % Remaining of Initial, 0 min / % Remaining of Initial, 10 min / % Remaining of Initial, 20 min / % Remaining of Initial, 30 min / % Remaining of Initial, 60 min: 1 μM; for % Remaining of Initial / microsomal CLint at 1 μM / half-life at 1 μM / % Remaining of Initial, 0 min / % Remaining of Initial, 10 min / % Remaining of Initial, 20 min / % Remaining of Initial, 30 min / % Remaining of Initial, 60 min: microsomes
Procedure: The reaction mixture, minus cofactors, was prepared as described below. The test article was added into the reaction mixture at a final concentration of 1 μM. […] An aliquot of the reaction mixture (without cofactor) was equilibrated in a shaking water bath at 37° C. for 3 minutes. The reaction was initiated by the addition of cofactor, and the mixture was incubated in a shaking water bath at 37° C. Aliquots (100 μL) were withdrawn at 0, 10, 20, 30, and 60 minutes. All samples were immediately combined with 400 μL of ice-cold 50/50 acetonitrile/H2O containing 0.1% formic acid and internal standard to terminate the reaction. The samples were then mixed and centrifuged to precipitate proteins. Calibration standards were prepared in matched matrix. All samples and standards were assayed by LC-MS/MS using electrospray ionization for both the dosed prodrug I-9 and the expected drug (PEA). Analytical conditions are outlined in Appendix 4-1. The test article concentration at each time point was compared to the test article concentration at time 0 to determine the percent remaining at each time point. Half-lives were calculated using GraphPad software, fitting to a single-phase exponential decay equation.
Reaction mixture, minus cofactors, was prepared as described below. Test article was added into the reaction mixture at a final concentration of 1 μM. […] An aliquot of the reaction mixture (without cofactor) was equilibrated in a shaking water bath at 37° C. for 3 minutes. The reaction was initiated by the addition of cofactor, and the mixture was incubated in a shaking water bath at 37° C. Aliquots (100 μL) were withdrawn at 0, 10, 20, 30, and 60 minutes. Test article samples were immediately combined with 300 μL of ice-cold acetonitrile containing 1% formic acid. Control samples were immediately combined with 400 μL of ice-cold 50/50 acetonitrile (ACN)/dH2O containing 0.1% formic acid and internal standard to terminate the reaction. Samples were then mixed and centrifuged to precipitate proteins. Calibration standards were prepared in matched matrix. Samples and standards were assayed by LC-MS/MS using electrospray ionization for both dosed prodrug and expected drug (PEA). Analytical conditions are outlined in Appendix 8-1. Test article concentration at each time point was compared to test article concentration at time 0 to determine the percent remaining at each time point. Half-lives were calculated using GraphPad software, fitting to a single-phase exponential decay equation.
Reaction mixture, minus cofactors, was prepared as described below. Test article was added into the reaction mixture at a final concentration of 1 μM. […] An aliquot of the reaction mixture (without cofactor) was equilibrated in a shaking water bath at 37° C. for 5 minutes. Reaction was initiated by the addition of cofactor, and the mixture was incubated in a shaking water bath at 37° C. Aliquots (100 μL) were withdrawn at 0, 10, 20, 30, and 60 minutes. Test article samples were immediately combined with 300 μL of ice-cold acetonitrile containing 1% formic acid. Control samples were immediately combined with 400 μL of ice-cold 50/50 acetonitrile (ACN)/dH2O containing 0.1% formic acid and internal standard to terminate the reaction. Samples were then mixed and centrifuged to precipitate proteins. Calibration standards were prepared in matched matrix. Samples and standards were assayed by LC-MS/MS using electrospray ionization for both the dosed prodrug and the expected drug (PEA). Analytical conditions are outlined in Appendix 10-1. Test article concentration at each time point was compared to the test article concentration at time 0 to determine the percent remaining at each time point. Half-lives were calculated using GraphPad software, fitting to a single-phase exponential decay equation.
Reaction mixture, minus cofactors, was prepared as described below. Test article was added into the reaction mixture at a final concentration of 1 μM.

[1] = both, human, calculated value in parentheses
[2] = male, Sprague-Dawley, rat, 0 min
[3] = male, Sprague-Dawley, rat, 10 min
[4] = male, Sprague-Dawley, rat, 20 min
[5] = male, Sprague-Dawley, rat, 30 min
[6] = male, Sprague-Dawley, rat, 60 min
[7] = male, Sprague-Dawley, rat, 0.5 h
[8] = male, Sprague-Dawley, rat, calculated value in parentheses
[9] = male, Sprague-Dawley, rat, Half-life

CCCCCCCCCCCCCCCC(=O)NCCOC(=O)CCC(=O)OC(CO)CO [Compound I-8]
Measured concentration of PEA (analyte) (both, human, 0 min): 0.063 µM
Measured concentration of PEA (analyte) (both, human, 10 min): 0.34 µM
Measured concentration of PEA (analyte) (both, human, 20 min): 0.25 µM
Measured concentration of PEA (analyte) (both, human, 30 min): 0.21 µM
Measured concentration of PEA (analyte) (both, human, 60 min): 0.070 µM
% Remaining of Initial (both, human, 0 h): 100%
% Remaining of Initial (both, human, 10 min): 2.8%
% Remaining of Initial (both, human, 20 min): <1.0%
% Remaining of Initial (both, human, 0.5 h): <1.0%
% Remaining of Initial (both, human, 1 h): <1.0%
microsomal CLint at 1 μM (both, human): > 139 µL/min/mg
microsomal CLint at 1 μM [1]: 712 µL/min/mg
half-life at 1 μM (both, human, Half-life): < 10 min
half-life at 1 μM (both, human, Half-life, calculated value in parentheses): 2 min
Measured concentration of PEA (analyte) [2]: 0.033 µM
Measured concentration of PEA (analyte) [3]: 0.041 µM
Measured concentration of PEA (analyte) [4]: 0.019 µM
Measured concentration of PEA (analyte) [5]: 0 µM
Measured concentration of PEA (analyte) [6]: 0 µM
% Remaining of Initial (male, Sprague-Dawley, rat, 0 h): 100%
% Remaining of Initial [3]: 4.3%
% Remaining of Initial [4]: 1.2%
% Remaining of Initial [7]: <1.0%
% Remaining of Initial (male, Sprague-Dawley, rat, 1 h): <1.0%
microsomal CLint at 1 μM (male, Sprague-Dawley, rat): > 139 µL/min/mg
microsomal CLint at 1 μM [8]: 624 µL/min/mg
half-life at 1 μM [9]: < 10 min
half-life at 1 μM (male, Sprague-Dawley, rat, Half-life, calculated value in parentheses): 2.2 min

CC/C=C\C/C=C\C/C=C\C/C=C\C/C=C\CCCC(=O)OCCNC(=O)CCCCCCCCCCCCCCC [Compound I-5]
Measured concentration of analyte PEA, 0 min (both, human, 0 min): 0.014 µM
Measured concentration of analyte PEA, 10 min (both, human, 10 min): 0.020 µM
Measured concentration of analyte PEA, 20 min (both, human, 20 min): 0.025 µM
Measured concentration of analyte PEA, 30 min (both, human, 30 min): 0.022 µM
Measured concentration of analyte PEA, 60 min (both, human, 60 min): 0.016 µM
% Remaining of Initial, 0 min (both, human, 0 h): 100%
% Remaining of Initial, 10 min (both, human, 10 min): 90%
% Remaining of Initial, 20 min (both, human, 20 min): 82%
% Remaining of Initial, 30 min (both, human, 0.5 h): 79%
% Remaining of Initial, 60 min (both, human, 1 h): 62%
microsomal CLint at 1 μM (both, human): < 23.1 µL/min/mg
microsomal CLint at 1 μM [1]: 15.4 µL/min/mg
half-life at 1 μM (both, human, Calculated half-life (in parentheses)): 90 min
half-life at 1 μM (both, human, Half-life): > 60 min
Measured concentration of analyte PEA, 0 min [2]: 0.034 µM
Measured concentration of analyte PEA, 10 min [3]: 0.033 µM
Measured concentration of analyte PEA, 20 min [4]: 0.015 µM
Measured concentration of analyte PEA, 30 min [5]: 0.015 µM
Measured concentration of analyte PEA, 60 min [6]: 0.0027 µM
% Remaining of Initial, 0 min (male, Sprague-Dawley, rat, 0 h): 100%
% Remaining of Initial, 10 min [3]: 77%
% Remaining of Initial, 20 min [4]: 70%
% Remaining of Initial, 30 min [7]: 69%
% Remaining of Initial, 60 min (male, Sprague-Dawley, rat, 1 h): 57%
microsomal CLint at 1 μM (male, Sprague-Dawley, rat): < 23.1 µL/min/mg
microsomal CLint at 1 μM [8]: 18.6 µL/min/mg
half-life at 1 μM (male, Sprague-Dawley, rat, Calculated half-life (in parentheses)): 75 min
half-life at 1 μM [9]: > 60 min
